# Like-named read-outs stand apart in the source and are kept apart here. Marks after values point to notes of the source that are not given here.
# Columns and labels:
# [1] = set-up: method as in unpublished; conditions: single oral dose at 800 mg; ref unpublished; cited from earlier work
# [2] = Food-effect two-period crossover trial: plasma pharmacokinetics after a single 200 mg oral dose of Ginsenoside CK Tablets; type: in vivo, human; conditions: for AUC(0-inf) / AUC(0-t) / Tmax / Cmax / half-life / MRT inf / MRT last: human, plasma, po, 200 mg; for AUC(0-inf) / AUC(0-t) / Tmax / Cmax / half-life / MRT inf / MRT last / V/F: single oral 200 mg CK; for Tmax: median (range); for Cmax: read-out: Cmax; for half-life: read-out: t1/2 (converted)
# Protocol: The food-effect trial was an open-label, randomized, two-period, two-treatment crossover trial, carried out from 15 January to 31 March 2015. Subjects (n = 24) were admitted to the clinical facility (Center of Clinical Pharmacology, the Third Xiangya Hospital, Central South University, Changsha, China) and randomized to receive a single 200 mg oral dose of Ginsenoside CK Tablets (4 × 50 mg tablets) either after a 10 h-fasting period or within 30 min after beginning the consumption of a recommended high-fat, high calorie breakfast (150 calories of protein, 250 calories of carbohydrates, 500 to 600 calories of fat; total calories approximately 800–1,000). Tablets were administered with 250 mL of water, to each subject, in each treatment period. Drinking was prohibited for 2 h before and after medication. Apart from this, the amount and time of drinking were not strictly controlled. Subjects had unified, standard meals 4 and 10 h after drug administration. The alternate treatment was conducted after a 14-day washout period.
# Serial blood samples (5 mL) for PK assessment were collected from an indwelling catheter or by direct venipuncture prior to the administration (t = 0) and 0.25, 0.5, 1, 1.5, 2, 2.5, 3, 3.5, 4, 5, 6, 8, 12, 24, 36, 48, 72, and 96 h after the administration of ginsenoside CK. We inferred that these sampling times were sufficient for this trial, based on international guidelines (FDA, [2003]; CFDA, [2005]) and our previous results, since the sampling time is longer than at least three terminal half-lives of the drug. Additionally, the mean plasma concentrations of both CK and 20(S)-PPD at 96 h were considerably <1/20 of their Cmax even when the single oral dose at 800 mg (unpublished). Plasma was separated in blood collection tubes by centrifugation (3,000 rpm, 10 min) at 4°C within 1 h after sampling, transferred to labeled storage tubes and stored at −70°C pending workup and analysis.
# Descriptive statistics of PK parameters were calculated using established non-compartmental methods, utilizing the WinNonLin version 6.1 software (Pharsight Corporation, USA). The PK parameters determined for each participant included apparent terminal half-life (t1/2), maximum plasma concentration (Cmax), time to Cmax (tmax), area under the plasma concentration-time curve from the time of administration up to the last time point with a measurable concentration post-dose (AUClast), AUC extrapolated to infinity (AUCinf), apparent volume of distribution (V/F), apparent plasma clearance (CL/F) after extravascular administration, mean residence time (MRTlast and MRTinf), and the cumulative excretion rate from urine. The t1/2 was estimated as (ln2)/K, where K represented the slope of the terminal phase of plasma concentration-time profile and was assessed with a weighting factor of 1, using least squares (log-linear regression of at least three data points). The Cmax and tmax were obtained from experimental observations. The values of AUC were calculated using conventional trapezoidal and log-trapezoidal methods and the extrapolated area (Rowland and Tozer, [1995]). CL/F and V/F were calculated as dose/AUCinf and (CL/F)/K, respectively. MRT was calculated as MRT = AUMC/AUC, where AUMC is the area under the first moment curve. The cumulative excretion rate was calculated as the amount of unchanged drug over a time interval in the urine divided by dose, and was expressed as a percentage.
# All samples were detected using a LC-MS/MS (API 4000, ABI Company, USA) method, validated at the Institute of Clinical Pharmacology, Central South University (Changsha, China). Concentrations of CK and 20(S)-PPD were measured using a triple quadrupole tandem mass spectrometer in multiple reaction monitoring (MRM) mode, via a positive electrospray ionization source at m/z 621.4→ 160.8 for the CK and m/z 461.5→425.3 for 20(S)-PPD, with a dwell time of 200 ms. […]
# [3] = geometric mean ratio FO vs. HF, n = 24
smiles,measurement,setting,value
"CC(C)=CCC[C@](C)(O)C1CC[C@]2(C)C1[C@H](O)CC1[C@@]3(C)CC[C@H](O)C(C)(C)C3CC[C@]12C (stereo partly drawn) [20(S)-PPD, 20(S)-protopanaxadiol]",Mean plasma concentration at 96 h as fraction of Cmax,[1],< 1/20
same,lgAUClast GMR (90%CI),"[2]; FO vs. HF (Female), n = 12",1.83 (1.27–2.64)
same,lgCmax GMR (90%CI),"[2]; FO vs. HF (Female), n = 12",1.98 (1.47–2.66)
same,lgAUClast GMR (90%CI),"[2]; FO vs. HF (Male), n = 12",1.08 (0.69–1.70)
same,lgCmax GMR (90%CI),"[2]; FO vs. HF (Male), n = 12",1.12 (0.74–1.70)
same,lgAUClast GMR (90%CI),"[2]; M vs. F (FO), n = 12",0.34 (0.15–0.75)
same,lgCmax GMR (90%CI),"[2]; M vs. F (FO), n = 12",0.48 (0.23–0.99)
same,lgAUClast GMR (90%CI),"[2]; M vs. F (HF), n = 12",0.57 (0.23–1.41)
same,lgCmax GMR (90%CI),"[2]; M vs. F (HF), n = 12",0.84 (0.38–1.84)
same,AUC(0-inf),"[2]; both sexes, FO, all subjects",228 ± 96.1 ng·h/mL
same,AUC(0-t),"[2]; both sexes, FO, all subjects",161 ± 114 ng·h/mL
same,AUC(0-inf),"[2]; both sexes, HF, all subjects",163 ± 95.4 ng·h/mL
same,AUC(0-t),"[2]; both sexes, HF, all subjects",116 ± 97.1 ng·h/mL
same,Tmax,"[2]; female, FO",26 h
same,Tmax,"[2]; female, HF",26 h
same,Cmax,"[2]; female, FO, female",6.4 ± 2.7 ng/mL
same,half-life,"[2]; female, FO, female",19.9 ± 5.5 h
same,Cmax,"[2]; female, HF, female",3.5 ± 2.1 ng/mL
same,half-life,"[2]; female, HF, female",21.2 ± 7.6 h
same,MRT inf,"[2]; female, FO",40.7 ± 7.5 h
same,MRT last,"[2]; female, FO",36.3 ± 6.8 h
same,MRT inf,"[2]; female, HF",46.7 ± 8.6 h
same,MRT last,"[2]; female, HF",37.5 ± 5.8 h
same,AUC(0-inf),"[2]; female, FO",225 ± 86.4 ng·h/mL
same,AUC(0-t),"[2]; female, FO",203 ± 88.8 ng·h/mL
same,AUC(0-inf),"[2]; female, HF",154 ± 99.5 ng·h/mL
same,AUC(0-t),"[2]; female, HF",132 ± 97.4 ng·h/mL
same,lgAUClast GMR (90%CI),[2]; [3],1.41 (1.05–1.88)
same,lgCmax GMR (90%CI),[2]; [3],1.49 (1.15–1.93)
same,Tmax,"[2]; FO, all subjects",24.5 h
same,Tmax,"[2]; HF, all subjects",26 h
same,half-life,"[2]; FO (fasting overnight), all subjects",19.3 ± 6 h
same,Cmax,"[2]; FO, all subjects",5.7 ± 3.8 ng/mL
same,half-life,"[2]; HF (high-fat meal), all subjects",21.2 ± 9.8 h
same,Cmax,"[2]; HF, all subjects",3.7 ± 3 ng/mL
same,MRT inf,"[2]; FO, all subjects",38.5 ± 9.7 h
same,MRT last,"[2]; FO, all subjects",31.7 ± 8.4 h
same,MRT inf,"[2]; HF, all subjects",45.1 ± 9.5 h
same,MRT last,"[2]; HF, all subjects",33.8 ± 6.9 h
same,Tmax,"[2]; male, FO",23 h
same,Tmax,"[2]; male, HF",26 h
same,Cmax,"[2]; male, FO, male",4.9 ± 4.7 ng/mL
same,half-life,"[2]; male, FO, male",18.2 ± 7.1 h
same,Cmax,"[2]; male, HF, male",3.9 ± 3.8 ng/mL
same,half-life,"[2]; male, HF, male",21.2 ± 13.7 h
same,MRT inf,"[2]; male, FO",34.5 ± 12.5 h
same,MRT last,"[2]; male, FO",27 ± 7.4 h
same,MRT inf,"[2]; male, HF",42.2 ± 11.1 h
same,MRT last,"[2]; male, HF",30.2 ± 5.9 h
same,AUC(0-inf),"[2]; male, FO",234 ± 121 ng·h/mL
same,AUC(0-t),"[2]; male, FO",120 ± 124 ng·h/mL
same,AUC(0-inf),"[2]; male, HF",178 ± 94.2 ng·h/mL
same,AUC(0-t),"[2]; male, HF",100 ± 98.5 ng·h/mL
same,V/F,"[2]; FO, all subjects","30,348 ± 22,300^a L"
same,V/F,"[2]; FO, female","33,100 ± 27,003^c L"
same,V/F,"[2]; FO, male","25,304 ± 9,268^b L"
same,V/F,"[2]; HF, all subjects","61,539 ± 64,303^a L"
same,V/F,"[2]; HF, female","64,980 ± 64,481^c L"
same,V/F,"[2]; HF, male","55,230 ± 69,586^b L"

# Reference: article PMC5602130, “Food and Sex-Related Impacts on the Pharmacokinetics of a Single-Dose of Ginsenoside Compound K in Healthy Subjects” (Frontiers in Pharmacology, 2017)
